Data taken from patent publication US20260078120A1, “SUBSTITUTED PYRIDOPYRIMIDINONES” (MIRATI THERAPEUTICS, INC., priority 2022, published 2026).

Legend:
Format in all cases: cell-based
[1] = tested on: T47D (PI3Kα H1047R mutant) cells; assay: Inhibition of pAKT formation, alphaLISA SureFire Ultra AKT 1/2/3 (pS473), T47D cells; conditions: Homo sapiens, T47D, T47D (PI3Kα H1047R mutant) cells; inhibition of pAKT (pS473) formation; approximately one hour or 24 hours treatment; read-out: T47D pAKT (H1047R mutant) IC50
Method: The ability of a compound of Formula (I) to inhibit the formation of pAKT was measured using alphaLISA Surefire Ultra AKT 1/2/3 (pS473) Assay Kit (#ALSU-PAKT-B50K) was obtained from Perkin Elmer (Waltham, MA).
To prepare assay plates for pAKT alphaLISA assays, cells were trypsinized, resuspended in fresh media, and viable cells were counted utilizing trypan blue exclusion. Prior to seeding, cells were washed with PBS and resuspended in HBSS (Gibco, #14025092). T47D (12,000/w), SKBR3(12,000/w), or MKN1(24,000/w) cells were seeded at 12 μl per well in a solid white flat bottom 384 cell culture plate (Perkin Elmer #6007680).
Immediately after seeding, cells were dosed using an Echo Liquid Handler (Beckman Coulter) with compounds at a […] starting concentration and serially diluted (1:4) for a total of 10 concentrations. […] Cells were incubated with the compounds (solubilized in DMSO) for approximately one hour or 24 hours at 37° C. After one hour (or 24 hours) of treatment, cells were lysed with 3 μl of the 5× lysis buffer (provided and incubated at room temperature for 15 min on a microtiter plate shaker). Once cells were sufficiently lysed, 7.5 μl of the acceptor bead mix (made using the manufacturers recommended dilutions) was added to each well and left on the microtiter plate shaker for 1 min prior to incubating plates at room temperature for one hour, in the absence of light. After one hour of incubation with the acceptor bead mix, 7.5 μl of the donor bead mix (made using the manufacturers recommended dilutions) was added to each well and left on the microtiter plate shaker for 1 min prior to incubating plates at room temperature overnight in the absence of light. Plates were then imaged the following day using a CLARIOstar microplate reader (BMG Labtech, Germany).
Percent of control values were calculated by subtracting the average signal from the positive control (alpelisib) treated wells from all treated wells (including DMSO control wells) and then divided by the average signal from the vehicle DMSO treated control wells. Percent of vehicle control values were plotted as log (inhibitor) vs. response-Variable slope (four parameters) for curve fitting and IC50 values were determined using XLfit.
Key: N.D. =not determined
Inhibition of pAKT in T47D (PI3Kα H1047R mutant) cells by Exemplary Compounds of Formula (I)

[2] = tested on: T47D (PI3Kα H1047R mutant) cells; assay: CellTiter-Glo 2.0 luminescent cell viability assay, 72 hours, T47D cells; conditions: Homo sapiens, T47D, 72 h, T47D (PI3Kα H1047R mutant) cells, CellTiter-Glo, approximately 72 hours; read-out: T47D (H1047R mutant) Viability IC50
Summary of the method: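 Viability was measured by CellTiter-Glo 2.0 luminescence after approximately 72 h of compound exposure at 37° C. Plating was 1000 cells per well the day before dosing, with ten 1:4 dilutions from a 10 µM top concentration. Values as percent of vehicle were fitted by variable-slope log(inhibitor) regression to give IC50.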

[3] = tested on: SKBR3 (PI3Kα wild type) cells; assay: CellTiter-Glo 2.0 luminescent cell viability assay, 72 hours, SKBR3 cells; conditions: Homo sapiens, SK-BR-3, 72 h, SKBR3 (PI3Kα wild type) cells, CellTiter-Glo, approximately 72 hours; read-out: SKBR3 (WT) Viability IC50
Summary of the method: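 Viability measured via CTG luminescence following roughly 72 hours of compound exposure at 37° C. Dosing used a 10 um starting concentration diluted 1:4 over 10 points; percent-of-vehicle data fitted with a variable-slope four-parameter model for IC50.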

Cc1cc([C@@H](C)Nc2ccccc2C(=O)O)c2nc(N3CCN(c4ccc(C#N)cc4)C[C@H]3C)c(C)c(=O)n2c1 [Example 10-22, 2-(((R)-1-(2-((R)-4-(4-cyanophenyl)-2-methylpiperazin-1-yl)-3,7-dimethyl-4-oxo-4H-pyrido[1,2-a]pyrimidin-9-yl)ethyl)amino)benzoic acid]
IC50 [1]: 0.00385 µM | IC50 [2]: 0.048 µM | IC50 [3]: 5.54 µM

Cc1cc([C@@H](C)Nc2ccccc2C(=O)O)c2nc(N3CCC(F)(F)[C@@H](C)C3)c(C)c(=O)n2c1 [Example 10-127, 2-(((R)-1-(2-((S)-4,4-difluoro-3-methylpiperidin-1-yl)-3,7-dimethyl-4-oxo-4H-pyrido[1,2-a]pyrimidin-9-yl)ethyl)amino)benzoic acid]
IC50 [1]: 0.00119 µM | IC50 [2]: 0.0744 µM | IC50 [3]: > 10 µM

Cc1cc([C@@H](C)Nc2ccc(C)nc2C(=O)O)c2nc(N3Cc4ccccc4C3)c(C#N)c(=O)n2c1 [Example 10-5, (R)-3-((1-(3-cyano-2-(isoindolin-2-yl)-7-methyl-4-oxo-4H-pyrido[1,2-a]pyrimidin-9-yl)ethyl)amino)-6-methylpicolinic acid]
IC50 [1]: 0.000425 µM | IC50 [2]: 0.0136 µM | IC50 [3]: 2.19 µM

C[C@@H](Nc1ccccc1C(=O)O)c1cc(F)cn2c(=O)c(C#N)c(N3CCC(F)(F)CC3)nc12 [Example 10-25, (R)-2-((1-(3-cyano-2-(4,4-difluoropiperidin-1-yl)-7-fluoro-4-oxo-4H-pyrido[1,2-a]pyrimidin-9-yl)ethyl)amino)benzoic acid]
IC50 [1]: 0.00469 µM | IC50 [2]: 0.0496 µM | IC50 [3]: > 10 µM

Cc1cc([C@@H](C)Nc2ccccc2C(=O)O)c2nc(N(C)CC3CC3)c(C#N)c(=O)n2c1 [Example 10-80, (R)-2-((1-(3-cyano-2-((cyclopropylmethyl)(methyl)amin0)-7-methyl-4-oxo-4H-pyrido[1,2-a]pyrimidin-9-yl)ethyl)amino)benzoic acid]
IC50 [1]: 0.00198 µM | IC50 [2]: 0.075 µM | IC50 [3]: > 10 µM

Cc1cc([C@@H](C)Nc2ccccc2C(=O)O)c2nc(N3CCN(c4ccc(F)cc4)CC3)c(C)c(=O)n2c1 [Example 10-36, (R)-2-((1-(2-(4-(4-fluorophenyl)piperazin-1-yl)-3,7-dimethyl-4-oxo-4H-pyrido[1,2-a]pyrimidin-9-yl)ethyl)amino)benzoic acid]
IC50 [1]: 0.0038 µM | IC50 [2]: 0.057 µM | IC50 [3]: > 10 µM

Cc1cc([C@@H](C)Nc2ccccc2C(=O)O)c2nc(N3CCC(F)(F)CC3)c(Br)c(=O)n2c1 [Example 10-12, (R)-2-((1-(3-bromo-2-(4,4-difluoropiperidin-1-yl)-7-methyl-4-oxo-4H-pyrido[1,2-a]pyrimidin-9-yl)ethyl)amino)benzoic acid]
IC50 [1]: 0.000639 µM | IC50 [2]: 0.031 µM | IC50 [3]: > 10 µM

C[C@@H](Nc1ccccc1C(=O)O)c1cc(F)cn2c(=O)c(C#N)c(N3Cc4ccccc4C3)nc12 [Example 10-39, (R)-2-((1-(3-cyano-7-fluoro-2-(isoindolin-2-yl)-4-oxo-4H-pyrido[1,2-a]pyrimidin-9-yl)ethyl)amino)benzoic acid]
IC50 [1]: 0.0017 µM | IC50 [2]: 0.059 µM | IC50 [3]: > 10 µM

Cc1cc([C@@H](C)Nc2ccccc2C(=O)O)c2nc(N3CC[C@@H]3CF)c(C#N)c(=O)n2c1 (single isomer, unassigned) [Example 10-53]
IC50 [1]: 0.00435 µM | IC50 [2]: 0.0772 µM | IC50 [3]: > 10 µM

Cc1cc([C@@H](C)Nc2ccc(Cl)nc2C(=O)O)c2nc(NCC3CC3)c(C)c(=O)n2c1 [Example 10-85, (R)-6-chloro-3-((1-(2-((cyclopropylmethyl)amino)-3,7-dimethyl-4-oxo-4H-pyrido[1,2-a]pyrimidin-9-yl)ethyl)amino)picolinic acid]
IC50 [1]: 0.002 µM | IC50 [2]: 0.0795 µM | IC50 [3]: > 10 µM

Cc1cc([C@@H](C)Nc2ccccc2C(=O)O)c2nc(N3CC[C@H]3CF)c(C#N)c(=O)n2c1 (single isomer, unassigned) [Example 10-54]
IC50 [1]: 0.00336 µM | IC50 [2]: 0.0722 µM | IC50 [3]: > 10 µM
